The values that follow are results of earlier work, collected in USRE45822E1, “Oral dosage form comprising a therapeutic agent and an adverse-effect agent” (Purdue Pharma L.P., priority 2001, dated 2015).

For the series the following is noted: administered orally; retain much of their efficacy.

In the case of `C[C@H]1[C@H]2Cc3ccc(O)cc3[C@]1(C)CCN2CC1CC1` [cyclazocine], the duration of action is around 24 h.
On to `O=C1CC[C@@]2(O)[C@H]3Cc4ccc(O)c5c4[C@@]2(CCN3CC2CC2)[C@H]1O5` [naltrexone], for which the duration of action was around 24 h.
